Key:
[1] = target: human Werner helicase (WRN, amino acids 517-1235 with L1074F point mutation) (Homo sapiens (Human), UniProt Q14191, L1074F); test: WRN (BV08) ADP-Glo assay; type: biochemical; conditions: human WRN (aa 517-1235, L1074F), read-out: ADP-Glo_hWRN_IC50
Method in brief: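 ADP-Glo luminescence read after 60 min, 25 °C reaction of 0.15 nM WRN (517-1235, L1074F, Sf9-expressed, tag removed) with 0.1 nM DNA duplex and 5 μM ATP, following 15 min compound preincubation; 20 mM Bicine pH 7.5, 1% DMSO. IC50 from 3- or 4-parameter fit of % inhibition.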

[2] = system: p21 induction in HCT 116 cells; test: p21 induction in cells (In-Cell Western, p21/GAPDH ratio); type: cell-based; conditions: Homo sapiens, 24 h compound incubation, read-out: p21_EC50
Method in brief: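 EC50 values come from nonlinear fits of percent activation, defined by the 800/700 nm p21-to-GAPDH ratio scaled between DMSO (low) and internal WRN inhibitor (high) controls. In-Cell Western read after 24 h compound exposure of HCT 116 cells at 37° C. Duplicate 11-point series, 2-fold steps, usually starting at 10 μM.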

Sequence of human Werner helicase (WRN, amino acids 517-1235 with L1074F point mutation) (Q14191 other isoform, or with tags, fused parts or gaps L1074F (already in the parent)): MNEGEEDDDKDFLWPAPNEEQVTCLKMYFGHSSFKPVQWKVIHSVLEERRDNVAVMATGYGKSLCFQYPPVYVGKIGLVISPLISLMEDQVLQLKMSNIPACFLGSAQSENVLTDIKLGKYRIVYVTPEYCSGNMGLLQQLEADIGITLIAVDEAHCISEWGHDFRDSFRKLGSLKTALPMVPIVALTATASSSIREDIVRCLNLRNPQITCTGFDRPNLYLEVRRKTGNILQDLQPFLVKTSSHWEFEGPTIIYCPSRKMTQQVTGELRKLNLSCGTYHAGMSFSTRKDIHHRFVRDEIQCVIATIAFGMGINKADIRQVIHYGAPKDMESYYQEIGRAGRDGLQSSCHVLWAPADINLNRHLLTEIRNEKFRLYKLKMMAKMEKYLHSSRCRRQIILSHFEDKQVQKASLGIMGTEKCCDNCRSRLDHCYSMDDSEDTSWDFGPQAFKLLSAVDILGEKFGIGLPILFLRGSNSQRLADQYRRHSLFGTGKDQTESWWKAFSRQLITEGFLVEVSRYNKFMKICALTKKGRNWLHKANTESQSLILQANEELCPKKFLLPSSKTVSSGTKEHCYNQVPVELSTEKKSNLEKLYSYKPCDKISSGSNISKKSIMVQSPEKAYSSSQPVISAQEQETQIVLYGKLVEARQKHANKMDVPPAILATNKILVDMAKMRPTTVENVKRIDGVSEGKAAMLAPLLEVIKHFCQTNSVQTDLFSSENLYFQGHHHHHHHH

Structure (SMILES) | IC50 [1] | EC50 [2]
CCc1c(N2CCN(C(=O)c3c(OC)ncc(C)c3O)[C@H]3CC[C@@H]32)c(=O)c2nn(-c3ccnc(C)c3)nc2n1CC(=O)NC12CC(C3CC3)(C1)C2 [Compound I-74, N-{3-cyclopropylbicyclo[1.1.1]pentan-1-yl}-2-{5-ethyl-6-[(1S,6S)-5-(4-hydroxy-2-methoxy-5-methylpyridine-3-carbonyl)-2,5-diazabicyclo[4.2.0]octan-2-yl]-2-(2-methylpyridin-4-yl)-7-oxo-2H,4H,7H-[1,2,3]triazolo[4,5-b]pyridin-4-yl}acetamide] | 5 to 50 nM | ≤ 500 nM
CCc1c(N2CCN(C(=O)c3ncnc(C)c3O)[C@H](C)C2)c(=O)c2nn(-c3ccnc(OC)c3)nc2n1CC(=O)NC12CC(C3CC3)(C1)C2 [Compound I-178, N-{3-cyclopropylbicyclo[1.1.1]pentan-1-yl}-2-{5-ethyl-6-[(3R)-4-(5-hydroxy-6-methylpyrimidine-4-carbonyl)-3-methylpiperazin-1-yl]-2-(2-methoxypyridin-4-yl)-7-oxo-2H,4H,7H-[1,2,3]triazolo[4,5-b]pyridin-4-yl}acetamide] | 5 to 50 nM | 500 to 2000 nM
CCc1c(N2CCN(C(=O)c3ccc4cccnc4c3O)[C@H]3CC[C@@H]32)c(=O)c2nn(C3=CCOCC3)nc2n1CC(=O)NC12CC(C(C)C)(C1)C2 [Compound I-159, 2-[2-(3,6-dihydro-2H-pyran-4-yl)-5-ethyl-6-[(1S,6S)-5-(8-hydroxyquinoline-7-carbonyl)-2,5-diazabicyclo[4.2.0]octan-2-yl]-7-oxo-2H,4H,7H-[1,2,3]triazolo[4,5-b]pyridin-4-yl]-N-[3-(propan-2-yl)bicyclo[1.1.1]pentan-1-yl]acetamide] | 5 to 50 nM | 500 to 2000 nM
CCc1c(N2CCN(C(=O)c3c(OC)ccnc3OC)[C@H]3CC[C@@H]32)c(=O)c2nn(C3=CCOCC3)nc2n1CC(=O)NC12CC(C(C)C)(C1)C2 [Compound I-191, 2-[2-(3,6-dihydro-2H-pyran-4-yl)-6-[(1S,6S)-5-(2,4-dimethoxypyridine-3-carbonyl)-2,5-diazabicyclo[4.2.0]octan-2-yl]-5-ethyl-7-oxo-2H,4H,7H-[1,2,3]triazolo[4,5-b]pyridin-4-yl]-N-[3-(propan-2-yl)bicyclo[1.1.1]pentan-1-yl]acetamide] | 5 to 50 nM | ≤ 500 nM
CCc1c(N2CCN(C(=O)c3ncnc(C)c3O)[C@H]3CC[C@@H]32)c(=O)c2nn(-c3ccnc(OC)c3)nc2n1CC(=O)NC1CC2(CCC(F)(F)CC2)C1 [Compound I-68, N-{7,7-difluorospiro[3.5]nonan-2-yl}-2-{5-ethyl-6-[(1S,6S)-5-(5-hydroxy-6-methylpyrimidine-4-carbonyl)-2,5-diazabicyclo[4.2.0]octan-2-yl]-2-(2-methoxypyridin-4-yl)-7-oxo-2H,4H,7H-[1,2,3]triazolo[4,5-b]pyridin-4-yl}acetamide] | 5 to 50 nM | > 5000 nM
CCc1c(N2CCN(C(=O)c3ncnc(C)c3O)[C@H]3CC[C@@H]32)c(=O)c2nn(C3=CCOCC3)nc2n1CC(=O)NC12CC(C(C)C)(C1)C2 [Compound I-18, 2-(2-(3,6-dihydro-2H-pyran-4-yl)-5-ethyl-6-((1S,6S)-5-(5-hydroxy-6-methylpyrimidine-4-carbonyl)-2,5-diazabicyclo[4.2.0]octan-2-yl)-7-oxo-2,7-dihydro-4H-[1,2,3]triazolo[4,5-b]pyridin-4-yl)-N-(3-isopropylbicyclo[1.1.1]pentan-1-yl)acetamide] | 5 to 50 nM | ≤ 500 nM
CCc1c(N2CCN(C(=O)c3ncnc(C)c3O)C3CCC[C@H]32)c(=O)c2nn(-c3ccnc(OC)c3)nc2n1CC(=O)NC12CC(C(C)C)(C1)C2 (stereo in doubt) [Compound I-76, rel-2-{6-[(4aR,7aS)-4-(5-hydroxy-6-methylpyrimidine-4-carbonyl)-octahydro-1H-cyclopenta[b]pyrazin-1-yl]-5-ethyl-2-(2-methoxypyridin-4-yl)-7-oxo-2H,4H,7H-[1,2,3]triazolo[4,5-b]pyridin-4-yl}-N-[3-(propan-2-yl)bicyclo[1.1.1]pentan-1-yl]acetamide] | 5 to 50 nM | 500 to 2000 nM

Results, then the molecule that gave them:

IC50 [1] | EC50 [2] | Structure (SMILES)
≤ 5 nM | ≤ 500 nM | CCc1c(N2CCN(C(=O)c3ncnc(C)c3O)[C@H]3CC[C@@H]32)c(=O)c2nn(-c3ccnc(OC)c3)nc2n1CC(=O)Nc1ccc(C(F)F)cc1F [Compound I-83, N-[4-(difluoromethyl)-2-fluorophenyl]-2-{5-ethyl-6-[(1S,6S)-5-(5-hydroxy-6-methylpyrimidine-4-carbonyl)-2,5-diazabicyclo[4.2.0]octan-2-yl]-2-(2-methoxypyridin-4-yl)-7-oxo-2H,4H,7H-[1,2,3]triazolo[4,5-b]pyridin-4-yl}acetamide]
100 to 500 nM | > 5000 nM | CCc1c(N2CCN(C(=O)c3ncnc(C)c3O)[C@H]3CC[C@@H]32)c(=O)c2nn(-c3ccnc(OC)c3)nc2n1CC(=O)NC1CC2(CCC2)C1OC (stereo partly drawn) [Compound I-71, 2-{5-ethyl-6-[(1S,6S)-5-(5-hydroxy-6-methylpyrimidine-4-carbonyl)-2,5-diazabicyclo[4.2.0]octan-2-yl]-2-(2-methoxypyridin-4-yl)-7-oxo-2H,4H,7H-[1,2,3]triazolo[4,5-b]pyridin-4-yl}-N-{1-methoxyspiro[3.3]heptan-2-yl}acetamide]
5 to 50 nM | ≤ 500 nM | CCc1c(N2CCN(C(=O)c3cc4cc[nH]c4nc3OC)[C@H]3CC[C@@H]32)c(=O)c2nn(C3=CCOCC3)nc2n1CC(=O)NC12CC(C(C)C)(C1)C2 [Compound I-157, 2-[2-(3,6-dihydro-2H-pyran-4-yl)-5-ethyl-6-[(1S,6S)-5-{6-methoxy-1H-pyrrolo[2,3-b]pyridine-5-carbonyl}-2,5-diazabicyclo[4.2.0]octan-2-yl]-7-oxo-2H,4H,7H-[1,2,3]triazolo[4,5-b]pyridin-4-yl]-N-[3-(propan-2-yl)bicyclo[1.1.1]pentan-1-yl]acetamide]
≤ 5 nM | ≤ 500 nM | CCc1c(N2CCN(C(=O)c3ncnc(C)c3O)CC2)c(=O)c2nn(-c3ccncc3)nc2n1CC(=O)Nc1ccc(C(F)(F)F)cc1Cl [Compound I-147, N-[2-chloro-4-(trifluoromethyl)phenyl]-2-{5-ethyl-6-[4-(5-hydroxy-6-methylpyrimidine-4-carbonyl)piperazin-1-yl]-7-oxo-2-(pyridin-4-yl)-2H,4H,7H-[1,2,3]triazolo[4,5-b]pyridin-4-yl}acetamide]
5 to 50 nM | ≤ 500 nM | CCc1c(N2CCN(C(=O)c3c(OC)nc(C(F)F)c(C)c3O)[C@H]3CC[C@@H]32)c(=O)c2nn(C3=CCOCC3)nc2n1CC(=O)NC12CC(C3CC3)(C1)C2 [Compound I-190, N-{3-cyclopropylbicyclo[1.1.1]pentan-1-yl}-2-{6-[(1S,6S)-5-[6-(difluoromethyl)-4-hydroxy-2-methoxy-5-methylpyridine-3-carbonyl]-2,5-diazabicyclo[4.2.0]octan-2-yl]-2-(3,6-dihydro-2H-pyran-4-yl)-5-ethyl-7-oxo-2H,4H,7H-[1,2,3]triazolo[4,5-b]pyridin-4-yl}acetamide]
5 to 50 nM | ≤ 500 nM | CCc1c(N2CCN(C(=O)c3ncnc(C)c3O)[C@H]3CC[C@@H]32)c(=O)c2nn(-c3cc(C)n(C)n3)nc2n1CC(=O)NC12CC(C3CC3)(C1)C2 [Compound I-34, N-{3-cyclopropylbicyclo[1.1.1]pentan-1-yl}-2-[2-(1,5-dimethyl-1H-pyrazol-3-yl)-5-ethyl-6-[(1S,6S)-5-(5-hydroxy-6-methylpyrimidine-4-carbonyl)-2,5-diazabicyclo[4.2.0]octan-2-yl]-7-oxo-2H,4H,7H-[1,2,3]triazolo[4,5-b]pyridin-4-yl]acetamide]
5 to 50 nM | ≤ 500 nM | CCc1c(N2CCN(C(=O)c3ncnc(C)c3O)[C@H]3CC[C@@H]32)c(=O)c2nn(-c3cnn(C4CC4)c3)nc2n1CC(=O)NC12CC(C(C)C)(C1)C2 [Compound I-25, 2-(2-(1-cyclopropyl-1H-pyrazol-4-yl)-5-ethyl-6-((1S,6S)-5-(5-hydroxy-6-methylpyrimidine-4-carbonyl)-2,5-diazabicyclo[4.2.0]octan-2-yl)-7-oxo-2,7-dihydro-4H-[1,2,3]triazolo[4,5-b]pyridin-4-yl)-N-(3-isopropylbicyclo[1.1.1]pentan-1-yl)acetamide]
5 to 50 nM | ≤ 500 nM | CCc1c(N2CCN(C(=O)c3ncnc(C)c3O)[C@H]3CC[C@@H]32)c(=O)c2nn(C3=CCOCC3)nc2n1CC(=O)NC12CC(C3CC3)(C1)C2 [Compound I-26, N-(3-cyclopropylbicyclo[1.1.1]pentan-1-yl)-2-(2-(3,6-dihydro-2H-pyran-4-yl)-5-ethyl-6-((1S,6S)-5-(5-hydroxy-6-methylpyrimidine-4-carbonyl)-2,5-diazabicyclo[4.2.0]octan-2-yl)-7-oxo-2,7-dihydro-4H-[1,2,3]triazolo[4,5-b]pyridin-4-yl)acetamide]
5 to 50 nM | 500 to 2000 nM | CCc1c(N2CCN(C(=O)c3c(OC)ncc(C)c3O)CC2)c(=O)c2nn(-c3ccnc(OC)c3)nc2n1CC(=O)NC12CC(CC(F)(F)F)(C1)C2 [Compound I-131, 2-{5-ethyl-6-[4-(4-hydroxy-2-methoxy-5-methylpyridine-3-carbonyl)piperazin-1-yl]-2-(2-methoxypyridin-4-yl)-7-oxo-2H,4H,7H-[1,2,3]triazolo[4,5-b]pyridin-4-yl}-N-[3-(2,2,2-trifluoroethyl)bicyclo[1.1.1]pentan-1-yl]acetamide]

Reference: US20250129069A1, “TRIAZOLO WRN INHIBITORS” (Nimbus Wadjet, Inc., priority 2023, published 2025)
